Experimental data reported in BindingDB's records for doi:10.1016/j.bmcl.2009.10.099 (Merck Research Laboratories, 2010).

Target: Cholesteryl ester transfer protein (Homo sapiens) (UniProt P11597)
Experiment: inhibition of human CETP assessed as cholesteryl ester transfer by fluorescence transfer assay

Cholesteryl ester transfer protein (Homo sapiens), sequence (P11597 whole entry, looked up): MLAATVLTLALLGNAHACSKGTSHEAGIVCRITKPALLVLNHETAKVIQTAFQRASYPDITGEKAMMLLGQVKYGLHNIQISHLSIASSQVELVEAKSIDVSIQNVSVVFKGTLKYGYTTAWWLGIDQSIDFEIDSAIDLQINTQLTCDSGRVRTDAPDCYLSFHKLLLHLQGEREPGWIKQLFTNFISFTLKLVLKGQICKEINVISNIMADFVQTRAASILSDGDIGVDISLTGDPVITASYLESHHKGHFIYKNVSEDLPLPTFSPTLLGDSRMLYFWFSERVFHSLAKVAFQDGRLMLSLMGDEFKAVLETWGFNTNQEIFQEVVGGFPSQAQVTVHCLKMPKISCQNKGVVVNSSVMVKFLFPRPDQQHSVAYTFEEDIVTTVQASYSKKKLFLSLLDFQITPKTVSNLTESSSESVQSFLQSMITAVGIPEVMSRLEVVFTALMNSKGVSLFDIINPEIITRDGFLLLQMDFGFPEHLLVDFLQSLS

Cc1ccccc1OCC(=O)Nc1ccc(-c2nc3cc([N+](=O)[O-])ccc3o2)cc1 was tested, and the IC50 was 0.94 µM.

With Cc1ccc2oc(-c3ccc(NC(=O)COc4ccccc4C)cc3)nc2c1 the IC50 was 2 µM.

In the case of Cc1ccccc1OCC(=O)Nc1ccc(-c2nc3ccc(F)cc3o2)cc1, the IC50 is reported as 7.5 µM.

Work on Cc1ccccc1OCC(=O)Nc1ccc(-c2nc3ccc([N+](=O)[O-])cc3o2)cc1 yielded an IC50 of 3.2 µM.

Work on Cc1ccccc1OCC(=O)Nc1ccc(-c2nc3cc(C(C)O)ccc3o2)cc1 (configuration not stated) yielded an IC50 of 3.4 µM.

Compound Cc1ccccc1OCC(=O)Nc1ccc(-c2nc3cc(Br)cc(F)c3o2)cc1 has an IC50 of 0.91 µM.

In the case of CC(=O)c1cc(C#N)cc2nc(-c3ccc(NC(=O)COc4ccccc4C)cc3)oc12, the IC50 is reported as 0.086 µM.

CC#CC(C)(O)c1cc(C#N)cc2nc(-c3ccc(NC(=O)COc4ccccc4C)cc3)oc12 (configuration not stated) was tested, and the IC50 was 0.16 µM.

Cc1ccccc1OCC(=O)Nc1ccc(-c2nc3c(C)c(Br)ccc3o2)cc1 was tested, and the IC50 was > 100 µM.

Cc1ccccc1OCC(=O)Nc1ccc(-c2nc3cccc(Cl)c3o2)cc1 was tested, and the IC50 was 21 µM.

In the case of Cc1cc2oc(-c3ccc(NC(=O)COc4ccccc4C)cc3)nc2cc1Cl, the IC50 is reported as > 100 µM.

For Cc1ccccc1OCC(=O)Nc1ccc(-c2nc3cc(Br)cc(C(C)(C)O)c3o2)cc1, the IC50 was 0.044 µM.
